# Data reported in patent US11464750B2, “Anticancer agent and use thereof” (priority 2017, dated 2022).
# Experiments:
# p53 protein = assay: Western blotting, p53 protein, JeKo-1 cells; type: cell-based, human; conditions: 0.5 μM, 12 hours until 48 hours after treatment
# Description: (§1) Specifically, JeKo-1 cells were cultured for 0 (control), 12, 24, and 48 hours in the presence of 0.5 μM of 3EZ,20Ac-ingenol. In addition, Panc-1 cells were cultured for 0 (control), 12, 24, and 48 hours in the presence of 3 μM of 3EZ,20Ac-ingenol.
# (§2) Subsequently, ATR protein, p53 protein, and phosphorylated p53 (hereinafter also referred to as “p-p53”) protein in the respective cells were respectively detected using an anti-ATR antibody (Cell Signaling Technology), an anti-p53 antibody (Santa Cruz), and an anti-p-p53 antibody (Cell Signaling Technology). Furthermore, as a loading control, actin protein was detected using an anti-actin antibody (Sigma).
# ATR protein [1] = assay: Western blotting, ATR protein, JeKo-1 cells; type: cell-based, human; conditions: 0.5 μM
# Description: as §1, §2
# BALL-1 cells = assay: Cell Death Detection ELISA (histone-binding DNA fragmentation), BALL-1; type: cell-based, human; conditions: 0.5 μM, 72 hours
# Description: The induction of apoptosis by 3EZ,20Ac-ingenol treatment was examined by detecting histone-binding DNA fragmentation in the cytoplasm using a Cell Death Detection ELISA kit (Roche Applied Science).
# Specifically, BALL-1 cells, TKG0210 cells, and TKG0377 cells were inserted into tubes at 5×10^4 cells/well/200 μL, and incubated for 6, 12, 24, 48, and 72 hours in the presence of 3EZ,20Ac-ingenol at a final concentration of 0.5 μM. Subsequently, the respective cells were lysed in a lysis buffer. Subsequently, the supernatant of cell debris of the respective cells was collected and transferred to an ELISA plate, and an absorbance at a wavelength of 405 nm was measured to measure the induction of apoptosis.
# ATR protein [2] = assay: Western blotting, ATR protein, Panc-1 cells; type: cell-based, human; conditions: 3 μM
# Description: as §1, §2
# p-GSK-3β (Ser^9) = assay: Western blotting, p-GSK-3β (Ser9), JeKo-1 cells; type: cell-based, human; conditions: 0.5 μM, entire cell
# Description: (§3) Specifically, first, JeKo-1 cells were cultured for 0 (control), 12, 24, and 48 hours in the presence of 0.5 μM of 3EZ,20Ac-ingenol. In addition, Panc-1 cells were cultured for 0 (control), 12, 24, and 48 hours in the presence of 3 μM of 3EZ,20Ac-ingenol.
# (§4) Subsequently, abundances of GSK-3β and p-GSK-3β in the respective cells were analyzed by Western blotting using an anti-GSK-3β antibody (Cell Signaling Technology) and an anti-p-GSK-3β (Ser^9) antibody (Cell Signaling Technology). Furthermore, as a loading control, actin protein was detected using an anti-actin antibody (Sigma).
# [3] = test system: phosphorylated H2AX (γH2AX); assay: Western blotting, phosphorylated H2AX, JeKo-1 cells; type: cell-based, human; conditions: 0.5 μM, 12 hours after treatment
# Description: Specifically, JeKo-1 cells were cultured for 0 (control), 12, 24 and 48 hours in the presence of 0.5 μM of 3EZ,20Ac-ingenol. In addition, Panc-1 cells were cultured for 0 (control), 12, 24, and 48 hours in the presence of 3 μM of 3EZ,20Ac-ingenol.
# Subsequently, phosphorylation of H2AX in the respective cells was detected using an anti-phosphorylated-H2AX antibody (Millipore). In addition, p21 protein was detected using an anti-p21 antibody (Cell Signaling Technology). Furthermore, as a loading control, actin protein was detected using an anti-actin antibody (Sigma).
# cyclin D1 = assay: Western blotting, cyclin D1, JeKo-1 cells; type: cell-based, human; conditions: 0.5 μM; for abundance of cyclin D1: cytoplasm fraction
# Description: as §3
# Subsequently, abundances of cyclin D1 in entire cell fractions, nuclear fractions, and cytoplasm fractions of the respective cells were analyzed by Western blotting.
# Panc-1 cells = assay: MTT assay, Panc-1 cells; type: cell-based, human; conditions: 48 hours, read-out: IC50 with respect to the Panc-1 cells
# Description: JeKo-1 cells of a cell line derived from a human mantle cell lymphoma were seeded in a 96-well plate at 1×10^4 cells/well/100 μL. In addition, Panc-1 cells of a cell line derived from a human pancreatic cancer were seeded in a 96-well plate at 3×10^3 cells/well/100 μL.
# Subsequently, 3EZ,20Ac-ingenol at final concentrations of 0 (control), 0.1, 0.5, 1, 5, and 10 μM was added the wells of the respective cells, and culturing was performed for 48 hours. Subsequently, cell proliferation was examined by MTT assay using a Cell Proliferation Kit I (Roche Applied Science).
# First, JeKo-1 cells were seeded in a 96-well plate at 1×10^4 cells/well/100 μL. Subsequently, irinotecan at a final concentration of 0 (control), 0.5, 1, 5, 10, 20, and 30 μM was added to the wells of the cells and culturing was performed for 48 hours. In addition, Panc-1 cells were seeded in a 96-well plate at 3×10^3 cells/well/100 μL. Subsequently, irinotecan at a final concentration of 0 (control), 0.5, 1, 5, 10, 20, 30, and 50 μM was added to the wells of the cells and culturing was performed for 48 hours. Subsequently, cell proliferation was examined by MTT assay using a Cell Proliferation Kit I (Roche Applied Science).
# GSK-3β = assay: Western blotting, GSK-3β, Panc-1 cells; type: cell-based, human; conditions: 3 μM, entire cell, 12 hours
# Description: as §3, §4
# p-Akt (Ser^473) = assay: Western blotting, p-Akt, Panc-1 cells; type: cell-based, human; conditions: 3 μM
# Description: as §3
# Subsequently, by Western blotting using an anti-Akt antibody (Cell Signaling Technology) and an anti-p-Akt (Ser^473) antibody (Cell Signaling Technology), abundances of total amounts of Akt protein and p-Akt in the entire cell fractions, nuclear fractions, and cytoplasm fractions of the respective cells were analyzed. Furthermore, as a loading control, actin protein was detected using an anti-actin antibody (Sigma).
# DT40 cells = conditions: stop in the G2/M phase; cited from earlier work
# caspase 3 = assay: Western blotting, activated caspase 3, Panc-1 cells; type: cell-based, human; conditions: 3 μM, 12 hours after treatment
# Description: Specifically, JeKo-1 cells were cultured for 0 (control), 12, 24, and 48 hours in the presence of 0.5 μM of 3EZ,20Ac-ingenol. In addition. Panc-1 cells were cultured for 0 (control), 12, 24, and 48 hours in the presence of 3 μM of 3EZ,20Ac-ingenol. Subsequently, activation of caspase 3 in the respective cells was detected by Western blotting using an anti-activated-caspase antibody (R & D Systems). Furthermore, as a loading control, actin protein was detected using an anti-actin antibody (Sigma).
# [4] = 12 hours, further increase 24 hours after treatment
smiles,measurement,setting,value
"CCCCC/C=C\C=C\C(=O)O[C@H]1C(C)=C[C@]23C(=O)[C@@H](C=C(COC(C)=O)[C@@H](O)[C@]12O)[C@H]1[C@@H](C[C@H]3C)C1(C)C [3EZ,20Ac-ingenol, 3-O-(2′E,4′Z-decadienoyl)-20-O-acetylingenol]",expression level of p53 protein,p53 protein,an increase in expression level of p53 protein was recognized
same,expression level of ATR protein,ATR protein [1]; [4],an increase in expression level of ATR protein was recognized
same,expression level of ATR protein,ATR protein [1]; 48 hours after treatment,a decrease was recognized
same,amount of fragmented DNA (apoptosis),BALL-1 cells,noticeably increased the amount of fragmented DNA
same,expression level of ATR protein,ATR protein [2]; [4],an increase in expression level of ATR protein was recognized
same,expression level of ATR protein,ATR protein [2]; 48 hours after treatment,a decrease was recognized
same,p-GSK-3β (an inactive type),p-GSK-3β (Ser^9),a decrease in p-GSK-3β (an inactive type) was observed
same,phosphorylation of H2AX,[3],phosphorylation of H2AX was detected
same,abundance of cyclin D1,cyclin D1; 12 to 48 hours,an increase in abundance of cyclin D1 was recognized
same,abundance of cyclin D1,cyclin D1; thereafter,a decrease was recognized thereafter
same,expression level of cyclin D1,"cyclin D1; entire cell fraction, 12 to 48 hours",a decrease in expression level of cyclin D1 was observed
same,expression level of cyclin D1,"cyclin D1; nuclear fraction, 12 to 48 hours",a slight decrease in expression level of cyclin D1 was observed
same,IC50,Panc-1 cells,3000 nM
same,GSK-3β (an active type),GSK-3β,an increase in GSK-3β was observed
same,abundance of p-Akt,"p-Akt (Ser^473); entire cell fraction, 12 hours and 24 hours",a temporary increase in abundances of both p-Akt and total amount of Akt was recognized
same,abundance of p-Akt,"p-Akt (Ser^473); entire cell fraction, 48 hours",a decrease was observed again
same,abundance of p-Akt,"p-Akt (Ser^473); nuclear fraction and cytoplasm fraction, 12 to 24 hours",an increase in abundance of both p-Akt and total amount of Akt was recognized
same,abundance of p-Akt,"p-Akt (Ser^473); nuclear fraction and cytoplasm fraction, 48 hours",a decrease was observed 48 hours after the treatment
same,cell proliferation of DT40 cells,DT40 cells,stops cell proliferation of DT40 cells
same,activation of caspase 3,caspase 3,activation of caspase 3 was observed
